The source of these data is patent US20210015793A1, “COMPOUNDS FOR TREATING CNS- AND NEURODEGENERATIVE DISEASES” (ETH ZURICH, priority 2018, published 2021).

The subject of one test is Mpp1. The experiment in a line: Immunoblot of Mpp1 protein content in PBMN cells of aged B6 mice. It is filed as in vivo, mouse. Conditions: 18-month-old B6 mice treated for 15 months in drinking water. An excerpt:
For protein separation by SDS-PAGE (Laemmli system), the protein pellet can be dissolved in SDS-PAGE sample buffer supplemented with SDS. As an alternative, sample buffer for native gel electrophoresis can be added. According to the original protocol, the SDS-PAGE Laemmli sample buffer contains 2% SDS, 0.1 M DTT (or 5% mercaptoethanol). To improve disaggregation of aggregated proteins, the buffer can be supplemented without or with urea ranging from about 0 M-8 M, preferably about 6 M urea and incubated for about 10 min to 24 h, preferably about 90 min at room temperature. Proteins can be stored frozen (about […]) at a concentration ranging from about 0.01-100 mg/ml, preferably about 0.5 mg-1 mg/ml, for further use. It may be further desirable to dilute the solubilisate, for example, diluting the supernatant solubilisate by 1:1-1:20, preferably 1:5, in a suitable buffer as described above (preferably supplemented with protease inhibitors). Before immunoblot detection of proteins, proteins are separated. For separation of proteins, one- or two-dimensional SDS-PAGE can be applied. […]
In general terms: Immunoblotting shows a protein as a band on a membrane.

The next test relates to male B6 mice. The experiment in a line: Aging-induced deterioration of male sperm quality in B6 mice. The settings on record: 18-month-old male B6 mice, 15 months treatment. It is filed as in vivo, mouse.

Consider `O=C(C1=C(O)C(c2ccccc2)N(c2ccc3c(c2)OCO3)C1=O)C1CC1` (stereo not shown) [Compound-1, 1-(1,3-benzodioxol-5-yl)-4-(cyclopropane-carbonyl)-3-hydroxy-2-phenyl-2H-pyrrol-5-one], for which the “Mpp1 protein content in PBMN cells” value with Mpp1 is on record as “significantly decreased the content of the senescence marker, Mpp1”. The “aging-induced epididymal degeneration (H&E sections of cauda epididymis)” value in the test on male B6 mice is “prevented”.

For `O=C(C1=C(O)C(c2ccc(F)cc2)N(c2ccc3c(c2)OCO3)C1=O)C1CC1` (stereo not shown) [Compound-1F, 1-(1,3-Benzodioxol-5-yl)-4-(cyclopropanecarbonyl)-2-(4-fluorophenyl)-3-hydroxy-2H-pyrrol-5-one], in the test on Mpp1, the “Mpp1 protein content in PBMN cells” value is listed as “significantly decreased the content of the senescence marker, Mpp1”. Besides, in the test on male B6 mice, the “aging-induced epididymal degeneration (H&E sections of cauda epididymis)” value is on record as “prevented”.
